The numbers were not newly measured in patent US9744157B2, “Combinations of solifenacin and salivary stimulants for the treatment of overactive bladder” (TheraVida, Inc., priority 2011, dated 2017), which cites them from elsewhere.

Structures are written as SMILES.

The data set deals with saliva output. As to conditions: 5 mg of pilocarpine.

For `CC[C@@H]1C(=O)OC[C@@H]1Cc1cncn1C` [pilocarpine], the “time of maximum saliva output after administration” value is “about 30 minutes”.
